System: splenocytes (glatiramer specific T cells)
Experiment: Ex-vivo testing in CJSL mice: cytokine secretion by splenocytes activated in vitro with GA RS after daily feeding
Design: key: BQL: Below Quantifiable Limit; BDL: Below Detectable Limit; AQL: Above Quantifiable Limit
Conditions: 50 μg/ml GA RS in-vitro
Procedure: Studies were conducted to test the potential properties of the mixture of polypeptides of the invention. In particular, the studies were to determine whether the mixture of polypeptides of the invention would elicit an immune response with similar cytokine patterns as those elicited by glatiramer acetate when tested in an ex-vivo model in mice.
Beginning on Day 0, groups of 4 CJSL Mice were fed daily with GA reference standard (GA RS, 12.5 μg/kg). Glatiramer Tannate (amount equivalent to 18.75 μg/kg), tannic acid (negative control, in an amount equivalent to the tannate administered to the 18.75 μg/kg glatiramer tannate group) or phosphate buffered saline (PBS—placebo control). During period of study, subsets of mice in each treatment group were sacrificed on days 4, 7 and 11. Spleens were excised and primary cell cultures were prepared. The effect of the treatment was tested by in-vitro activation of splenocytes with GA RS 50 μg/ml. The response of the cells to the challenge is a measure of previous exposure to Glatiramer and the generation of glatiramer specific T cells. T-cell response was monitored by detection of cytokines secreted from activated cells by ELISA analysis. The levels of IL-2, IL-3 and IL-5 cytokines were examined.

[1] = glatiramer dose NA (tannic acid equivalent to the tannate of the 18.75 group) daily oral, day of treatment 4
[2] = glatiramer dose NA (tannic acid equivalent to the tannate of the 18.75 group) daily oral, day of treatment 7
[3] = glatiramer dose NA (tannic acid equivalent to the tannate of the 18.75 group) daily oral, day of treatment 11
[4] = glatiramer treatment dose 12.5 Mg/kg daily oral, day of treatment 4
[5] = glatiramer treatment dose 12.5 Mg/kg daily oral, day of treatment 7
[6] = glatiramer treatment dose 12.5 Mg/kg daily oral, day of treatment 11

| Molecule | IL-2 secretion [1] | IL-3 secretion [1] | IL-5 secretion [1] | IL-2 secretion [2] | IL-3 secretion [2] | IL-5 secretion [2] | IL-2 secretion [3] | IL-3 secretion [3] | IL-5 secretion [3] | IL-2 secretion [4] | IL-3 secretion [4] | IL-5 secretion [4] | IL-2 secretion [5] | IL-3 secretion [5] | IL-5 secretion [5] | IL-2 secretion [6] | IL-3 secretion [6] | IL-5 secretion [6] |
| --- | --- | --- | --- | --- | --- | --- | --- | --- | --- | --- | --- | --- | --- | --- | --- | --- | --- | --- |
| O=C(OC[C@H]1O[C@@H](OC(=O)c2cc(O)c(O)c(OC(=O)c3cc(O)c(O)c(O)c3)c2)[C@H](OC(=O)c2cc(O)c(O)c(OC(=O)c3cc(O)c(O)c(O)c3)c2)[C@@H](OC(=O)c2cc(O)c(O)c(OC(=O)c3cc(O)c(O)c(O)c3)c2)[C@@H]1OC(=O)c1cc(O)c(O)c(OC(=O)c2cc(O)c(O)c(O)c2)c1)c1cc(O)c(O)c(OC(=O)c2cc(O)c(O)c(O)c2)c1 [Tannic Acid, tannic acid] | BQL | BQL | BDL | 26.7 pg/mL | 76.9 pg/mL | BQL | 16.6 pg/mL | 63.2 pg/mL | BQL | – | – | – | – | – | – | – | – | – |
| L-glutamic acid polymer with L-alanine, L-lysine and L-tyrosine, acetate (salt) [GA] | – | – | – | – | – | – | – | – | – | BQL | BQL | BDL | 121.5 pg/mL | 456.5 pg/mL | BQL | 119.0 pg/mL | 701.6 pg/mL | BQL |

From patent US20080118553A1, “Tannate salt form of polypeptide mixtures, their preparation and use” (priority 2006, published 2008)
